Data set [1] deals with Zymoseptoria tritici. Put plainly: Fungicidal activity: leaf blotch of wheat (SEPTTR), disease control on wheat seedlings. The conditions noted are these: wheat (Yuma); for pest or weed control at 121.5 g/ha: low volume application, 121.5 g/H; for pest or weed control at 100 ppm: high volume application. The format is in vivo. The procedure: Evaluation of Fungicidal Activity: Leaf Blotch of Wheat (Zymoseptoria Tritici; Bayer Code […]) Technical grades of materials were dissolved in acetone, which were then mixed with nine volumes of water (H2O) containing 110 ppm Triton X-100. The fungicide solutions were applied onto wheat seedlings using an automated booth sprayer to run-off. All sprayed plants were allowed to air dry prior to further handling. All fungicides were evaluated using the aforementioned method for their activity vs. all target diseases, unless stated otherwise. Wheat leaf blotch and brown rust activity were also evaluated using track spray applications, in which case the fungicides were formulated as EC formulations, containing 0.1% Trycol 5941 in the spray solutions. Wheat plants (variety Yuma) were grown from seed in a greenhouse in 50% mineral soil/50% soil-less Metro mix until the first leaf was fully emerged, with 7-10 seedlings per pot. These plants were inoculated with an aqueous spore suspension of Zymoseptoria tritici either prior to or after fungicide treatments. After inoculation the plants were kept in 100% relative humidity (one day in a dark dew chamber followed by two to three days in a lighted dew chamber at 20° C.) to permit spores to germinate and infect the leaf. The plants were then transferred to a greenhouse set at 20° C. for disease to develop. When disease symptoms were fully expressed on the 1st leaves of untreated plants, infection levels were assessed on a scale of 0 to 100 percent disease severity. Percent disease control was calculated using the ratio of disease severity on treated plants relative to untreated plants.

Data set [2] has as its system Puccinia triticina. Put plainly: Fungicidal activity: wheat brown rust (PUCCRT), disease control on wheat seedlings. The format is in vivo. The conditions noted are these: wheat (Yuma); for pest or weed control at 121.5 g/ha: low volume application, 121.5 g/H; for pest or weed control at 100 ppm: high volume application. How it is done: Technical grades of materials were dissolved in acetone, which were then mixed with nine volumes of water (H2O) containing 110 ppm Triton X-100. The fungicide solutions were applied onto wheat seedlings using an automated booth sprayer to run-off. All sprayed plants were allowed to air dry prior to further handling. All fungicides were evaluated using the aforementioned method for their activity vs. all target diseases, unless stated otherwise. Wheat leaf blotch and brown rust activity were also evaluated using track spray applications, in which case the fungicides were formulated as EC formulations, containing 0.1% Trycol 5941 in the spray solutions.
Evaluation of Fungicidal Activity: Wheat Brown Rust (Puccinia Triticina; Synonym: Puccinia recondita f. Sp. Tritici; Bayer Code PUCCRT)
Wheat plants (variety Yuma) were grown from seed in a greenhouse in 50% mineral soil/50% soil-less Metro mix until the first leaf was fully emerged, with 7-10 seedlings per pot. These plants were inoculated with an aqueous spore suspension of Puccinia triticina either prior to or after fungicide treatments. After inoculation the plants were kept in a dark dew room at 22° C. with 100% relative humidity overnight to permit spores to germinate and infect the leaf. The plants were then transferred to a greenhouse set at 24° C. for disease to develop. Fungicide formulation, application and disease assessment followed the procedures as described in the Example A. The results of the evaluation are shown below in Table 4.

In data set [3] the test system is Phakopsora pachyrhizi. The data set is described as follows: Fungicidal activity: Asian soybean rust (PHAKPA), disease control on soybean seedlings. The format is in vivo. The conditions noted are these: soybean (Williams 82). How it is done:
Evaluation of Fungicidal Activity: Asian Soybean Rust (Phakopsora pachyrhizi; Bayer Code PHAKPA)
Technical grades of materials were dissolved in acetone, which were then mixed with nine volumes of H2O containing 0.011% Tween 20. The fungicide solutions were applied onto soybean seedlings using an automated booth sprayer to run-off. All sprayed plants were allowed to air dry prior to further handling.
Soybean plants (variety Williams 82) were grown in soil-less Metro mix, with one plant per pot. Two weeks old seedlings were used for testing. Plants were inoculated either 3 days prior to or 1 day after fungicide treatments. Plants were incubated for 24 h in a dark dew room at 22° C. and 100% relative humidity then transferred to a growth room at 23° C. for disease to develop. Disease severity was assessed on the sprayed leaves.

The mark [4] stands for this setting: 24 h, 1 day protectant, read-out: SEPTTR 1DP disease control, LV activity at 121.5 g/H.
Where [5] appears, read: 72 h, 3 day curative, read-out: SEPTTR 3DC disease control, LV activity at 121.5 g/H.
The mark [6] stands for this setting: 24 h, 1 day protectant, read-out: PUCCRT 1DP disease control, LV activity at 121.5 g/H.
The mark [7] stands for this setting: 72 h, 3 day curative, read-out: PUCCRT 3DC disease control, LV activity at 121.5 g/H.
[8] abbreviates: 24 h, 1 day protectant, read-out: SEPTTR 1DP disease control, HV activity at 100 ppm.
Where [9] appears, read: 72 h, 3 day curative, read-out: SEPTTR 3DC disease control, HV activity at 100 ppm.
Setting [10] is: 24 h, 1 day protectant, read-out: PUCCRT 1DP disease control, HV activity at 100 ppm.
Setting [11] is: 72 h, 3 day curative, read-out: PUCCRT 3DC disease control, HV activity at 100 ppm.

Where two headings read alike, the source gives them in different places. Some results are limits rather than exact numbers.

On to `COc1cc(C)ccc1C(c1ccc(F)cc1OC)[C@H](C)OC(=O)[C@H](C)NC(=S)c1nccc(OC)c1OC(C)=O` (some centres unmarked) [Compound 65], for which the pest or weed control at 121.5 g/ha in data set [1] (setting [4]), in data set [1] (setting [5]), in data set [2] (setting [6]) and in data set [2] (setting [7]) was greater than 80% in each case. Moreover, the pest or weed control at 25 ppm in data set [3] (24 h, 1 day protectant, read-out: PHAKPA 1DP disease control at 25 ppm) was greater than 80%; in data set [3] (72 h, 3 day curative, read-out: PHAKPA 3DC disease control at 25 ppm), no more than 80%.

A word on the melting point: it is the temperature, or range, at which the solid turns liquid. Compound `COc1cc(C)ccc1C(c1ccc(F)cc1OC)[C@H](C)OC(=O)[C@H](C)NC(=S)c1nccc(OC)c1O` (some centres unmarked) [Compound 29] yielded a melting point of 60 to 72 °C. Further, the pest or weed control at 100 ppm in data set [1] (setting [8]) was greater than 80%. Also, the pest or weed control at 100 ppm in data set [1] (setting [9]) was greater than 80%. Moreover, the pest or weed control at 100 ppm in data set [2] (setting [10]) was greater than 80%. In addition, the pest or weed control at 100 ppm in data set [2] (setting [11]) was greater than 80%.

`CCCCC[C@@H](OC(=O)[C@H](C)NC(=S)c1nccc(OC)c1OC(C)=O)[C@H](C)Oc1ccccc1` [Compound 41]: the pest or weed control at 121.5 g/ha in data set [1] (setting [4]), in data set [1] (setting [5]), in data set [2] (setting [6]) and in data set [2] (setting [7]) was greater than 80% each time.

The compound `COc1ccnc(C(=S)N[C@@H](C)C(=O)O[C@@H](C)[C@H](Oc2ccc(C)cc2)C2CCCC2)c1O` [Compound 38] displayed a melting point of 49 to 57 °C. Besides, in data set [1] (setting [8]), the pest or weed control at 100 ppm is greater than 80%. Moreover, the pest or weed control at 100 ppm in data set [1] (setting [9]) is no more than 80%. The pest or weed control at 100 ppm in data set [2] (setting [10]) was greater than 80%. For the same compound, the pest or weed control at 100 ppm in data set [2] (setting [11]) was greater than 80%.

For the origin of these results see US10231452B2, “Thiopicolinamide compounds with fungicidal activity” (Dow AgroSciences LLC, priority 2016, dated 2019).
